The text below walks through data of US20160339080A1, “METHODS AND PHARMACEUTICAL COMPOSITIONS FOR THE TREATMENT OF HEPATOCELLULAR CARCINOMAS” (INSERM (INSTITUT NATIONAL DE LA SANTÉ ET DE LA RECHERCHE …, priority 2014, published 2016).

Molecules are shown by their SMILES.

The assay deals with SK-HEP-1 cells. Kind of assay: SK-HEP-1 cell growth (trypan blue-excluding adherent cells counted) and apoptosis. Type of assay: cell-based, human. The following applies: NSC-87877 50 μM with 1 μM orexin-A, 48 h. The procedure:
FIG. 1. […] SK-HEP-1 cells were challenged with (black) or without (white) 1 μM orexin-A for 48 h in the absence (wo) or presence of NSC-87877 (50 μM). At the end of the treatment, adherent cells were trypsinized, and cells excluding trypan blue were counted to measure SK-HEP-1 cell growth. Panel B : Effect of orexin-A inoculation on the growth of tumors developed by xenografting human HCC cancer cells SK-HEP-1 in nude mice. SK-HEP-1 cells were inoculated in the flank of nude mice at day 0. Mice were 2 times a week injected intraperitoneally with 100 μL of orexin-A (0,23 μmol/kg) solutions starting at day 0 (white circle) or day 22 (triangle) or with […] of PBS (black circle) for controls.
Orexins are hypothalamic peptides involved in sleep/wake control. We have shown that orexins promote robust apoptosis in colorectal cancer cells (Voisin T, El Firar A, Fasseu M, Rouyer-Fessard C, Descatoire V, Walker F, Paradis V, Bedossa P, Henin D, Lehy T, Laburthe M. (2011) Aberrant expression of OX1 receptors for orexins in colon cancers and liver metastases: an openable gate to apoptosis. Cancer Res. 71:3341-51.). […]

Regarding `O=S(=O)(O)c1ccc2cc(N=Nc3cc(S(=O)(=O)O)c4cccnc4c3O)ccc2c1` [NSC-87877], the “block of orexin-induced SK-HEP-1 growth inhibition” value is on record as “blocks orexin-induced SK-HEP-1 growth inhibitory” and the “reversal of orexin-induced apoptosis” value is recorded as “reverse orexin-induced apoptosis”.
